What was measured:
[1] = system: SLE/CLE skin and kidney, HD skin; assay: Immunohistochemistry and laser scanner confocal microscopy of tissues; set-up: species or system human; settings: for presence in SLE and CLE target organs: IHC and LSM, skin (dermis) and kidney; for kidney biopsies with DNA filaments bound to LL37 and/or cit-LL37: lupus nephritis, four of seven biopsies
Method: Immunohistochemistry and laser scanner confocal microscopy (LSM)
We performed staining on […] paraffin or frozen sections of human lupus erythematosus skin specimens obtained from CHUV, Dept. of Dermatology. Staining with anti-cit-LL37 Mabs was performed using the antibodies Mab142 and Mab137 at 1:40 dilution, followed by incubation with a […] (Abcam). HRP and DAB (DAKO) were used to develop the color. Nuclear staining was performed with Mayer’s haematoxylin. […]
Frozen or paraffin-included SLE renal biopsies, obtained from Policlinico Umberto I, Rome, IT or CHUV Lausanne, CH, were stained, after saturation with blocking buffer (PBS, 0.05% tween 20, 4% BSA) for 1 hour at room temperature. Bopsies in paraffin were stained after de-paraffination in xilene (5 minutes, two times), followed by passages in: absolute ethanol (3 minutes), 95% ethanol in water (3 minutes), 80% ethanol in water (3 minutes), 70% ethanol in water (3 minutes), and antigen retrieval (5 minutes at […]
95°C in 10 mM sodium citrate, pH 6.0). Antibodies (Mab142 or Mab137) were added at 1:50 dilution (all diluited in blocking buffer) (isotype control was added at 1:100 concentration) for 1 hour at room temperature in a humidified chamber. Anti-C9 (Atlas antibodies, Sweden) was added at 1:50 dilution (all antibody dilutions were in blocking buffer). Slides were washed three times for 3 minutes under agitation with PBS 0.1% tween 20 and incubated with donkey anti-mouse or anti-rabbit secondary antibody or mouse anti-goat antibody, conjugated with AlexaFluor 647, Alexa Fluor 568 or 594 or AlexaFluor 488, depending on the combinations of markers analyzed (in humidified chamber). Slides were washed again, and mounted in Prolong Gold anti-fade media containing a DNA dye (DAPI) (Molecular Probes), before analysis with a confocal microscope, objectives 20x, or 40x and 60x in oil immersion. Images were taken by a FV1000 confocal microscope (Olympus, Tokyo, Japan), using a Olympus planapo objective 40x or 60x oil A.N. 1,42.
Excitation light was obtained by a Laser Dapi 408 nm for DAPI, an Argon Ion Laser (488 nm) for FITC (Alexa 488), a Diode Laser HeNe (561 nm) for Alexa 568, and a Red Diode Laser (638 nm) for Alexa 647. DAPI emission was recorded from 415 to 485 nm, FITC emission was recorded […]
For quantification of LL37 and cit-LL37 in renal/skin biopsies, we counted the specific staining spots in at least 3 sections from each patient, by using the ImageJ64 software. For comparison we also counted the staining in HD skin, as background staining. To estimate the percent of co-localization between IgG and LL37 staining we measured, in three sections for each patient, the total IgG or LL37 staining in single color images and than on merge images we assessed the spots that indicates the co-localization IgG/LL37.
Reactivity of mouse anti-LL37 monoclonal antibodies (Mab137 and Mab142) Biotinylated native LL37, cit-SCR LL37, SCR LL37, cit-LL37, and the other citrullinated and non-citrullinated control antigenic peptides (also biotinylated) were diluted at 2-to-5 µg/mL and added to the wells over night at 4°C. Excess unbound peptides were washed away with wash buffer (PBS

PBMCs = assay: IL-21 production in PBMC cultures (ELISA); format: cell-based, human; settings: SLE (but not in psoriasis)
Text: analyzed by flow-cytometry (after staining by BrdU-detection kit, BD Pharmingen). Before cloning, bulk-cultures were stimulated with autologous-irradiated PBMCs and peptide over night, and stained for CD3 and CD4 and with the “Cytokine secretion assays kits” (MACS, Miltenyi Biotec) to detect IL-2-, IFN-ɣ- and/or IL-17-secretion and CD38 as an activation marker, and sorted by a cell-sorter (MoFlo Astrios, Beckman Coulter). Dead cells were excluded by DAPI staining. Sorted activated CD4+CD3+ cells, secreting cytokines were cloned by limiting dilution in Terasaki plates (Nunc Microwell, Sigma-Aldrich) in the presence of allogeneic-irradiated (104) PBMCs activated by phytohaemagglutinin (1 µg/mL, PHA, Murex, 0.5 cells/well) and 100 U/mL of hrIL-2. Clones reactivity and HLA-restriction were analyzed using HLA-matched-homozigous B-LCLs, pulsed with […]
Measurement of cytokine production in primary T-cells and T-cell lines/clones Cytokines secretion was detected by ELISA (Quantikine; R&D Systems, Minneapolis, MN) for IL-4, IL-10, IL-17, IFN-ɣ, IL-22, IL-21, or by Th1/Th2 10-Plex and IL-17-Tissue Culture Kits (read by MSD Sector Imager 2400, Meso Scale Discovery, Gaithersburg, MD). Supernatants were harvested from primary cultures at day 3 (day 2 for T-cell lines/clones). Production of cytokines was also analyzed by flow cytometry after culture of PBMCs with LL37/LL37-peptides for 6-7 days. […]

CD4 T-cells = assay: Peptide-MHC-tetramer staining of PBMC after seven-day culture; format: cell-based, human; settings: for peptide-MHC-tetramer staining in HLA-matched HD: HLA-matched HD PBMCs; for peptide-MHC-tetramer staining at remission: SLE2, SLE22 and CLE6 PBMCs at remission
Method: Peptide-MHC-tetramer staining of T-cell lines/clones and blood T-cells
Peptide-MHC-tetramers (Table S4) were from ProImmune, (UK), TC Metrix, (CH), Benaroya,
(USA) and ImmunAware (Denmark). Staining was performed for 40 minutes at 37°C, followed by
staining for CD4 (4°C, 20 minutes). Before flow cytometry-acquisition, cells were labelled with
PercP-conjugated 7-AAD to exclude dead cells. […]

Row | Substance | presence in SLE and CLE target organs [1] | expression in HD skin ([1]; healthy donor skin) | kidney biopsies with DNA filaments bound to LL37 and/or cit-LL37 [1] | IL-21 production (PBMCs) | peptide-MHC-tetramer staining in HLA-matched HD (CD4 T-cells; seven-day culture) | peptide-MHC-tetramer staining at remission (CD4 T-cells) | frequency of peptide-MHC-tetramer positive T-cells, cit-LL37 versus native-LL37 (CD4 T-cells; three patients (SLE2, SLE22, CLE6), seven-day culture)
1 | LLGDFFRKSKEKIGKEFKRIVQRIKDFLRNLVPRTES [LL37, native LL37, antimicrobial peptide, 37 aa] | detected | did not express significant amounts | 57% | significant up-regulation | did not stain significantly | not staining for native-LL37 | –
2 | LLGDFFR(cit)KSKEKIGKEFKR(cit)IVQR(cit)IKDFLR(cit)NLVPR(cit)TES [cit-LL37, citrullinated LL37 (citrullinated at all five arginin positions)] | detected | – | 57% | significant up-regulation | did not stain significantly | still observed some staining upon stimulation with cit-LL37 | higher upon culture of PBMCs with cit-LL37 compared to native-LL37
